In brackets after ≈: the same amount, converted by molar mass.
How the values were obtained:
[1] = Plasma protein binding by equilibrium dialysis; assay type: in vitro ADME; conditions: both sexes, pooled plasma, pH 7.4, human plasma protein binding, read-out: PPB
Experimental: The following procedure was used to determine the plasma protein binding of a test compound in pooled plasma from human (mixed gender) via equilibrium dialysis in a 96-well plate format. The dialysate compartment was loaded with phosphate-buffered saline (pH 7.4) and the sample side was loaded with plasma spiked with the test compound at a concentration of 10 μM. After loading, samples were covered and incubated for 4 hours at 37° C. After incubation, each compartment was sampled, diluted with acetonitrile/buffer and centrifuged. The supernatants were analyzed by HPLC-MS/MS. The analyte peak areas obtained from HPLC-MS/MS analysis of each sample were used to calculate protein binding according to the following equation (Equation 4):
where: AREAp=Peak area of analyte in protein matrix; AREAb=Peak area of analyte in buffer. The amount measured in the plasma compartment included both free and bound drug, while that on the buffer side represented free drug only; the differences were used to calculate the percentage plasma protein bound. Three reference compounds were tested in each assay: acebutolol, quinidine and warfarin.

human Factor XIa = human Factor XIa (Homo sapiens, UniProt P03951); test: Factor XIa enzyme inhibition assay (dose response, fluorogenic AMC substrate); assay type: biochemical; design: Enzyme: Factor XIa; conditions: purified enzyme; substrate 50 μM, enzyme 0.25 nM; read-out: hFXIa IC50
Procedure, shortened: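 Fluorogenic assay in 20 mM Hepes pH 7.4, 150 mM NaCl, 0.02% Tween 20 with 0.25 nM enzyme and 50 μM Glp-Pro-Arg-AMC (final). Fluorescence read every minute for 30 min at 30 °C after serial two-fold compound dilution; IC50 from four-parameter Hill fit of dose-response curves.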

[2] = Aqueous solubility in PBS pH 7.4; assay type: physicochemical; conditions: phosphate buffered saline, aqueous buffer, kinetic from dmso stock, PBS pH 7.4, room temperature
Experimental: The following procedure was used to determine the aqueous solubility of a test compound in phosphate buffered saline (PBS—NaCl 137 mM, KCl 2.7 mM, Na2HPO4 8.1 mM, KH2PO4 1.5 mM, pH 7.4) in 96-well plate format by HPLC-UV/VIS analysis. The test compound was prepared at 200 μM in PBS from a 10 mM DMSO stock solution. The final DMSO concentration was 2%. The PBS buffer samples were mixed thoroughly followed by incubation at room temperature for 24 h. At the end of the incubation, the PBS buffer samples were centrifuged and supernatants analyzed by HPLC. The aqueous solubility (μM) of the test compound in PBS was determined by comparing the peak area of the principal peak in the calibration standard (200 μM) with the peak area of the corresponding peak in each of the PBS samples. The range of the assay was approximately 0.5 μM to 200 μM. The reference compounds used in each assay were metoprolol, rifampicin, ketoconazole, phenytoin, haloperidol, simvastatin, diethylstilbestrol, and tamoxifen ranking from fully soluble (200 μM) to poorly soluble (<1 μM).

[3] = Caco-2 cell permeability assay (A-B and B-A); assay type: in vitro ADME; conditions: human; for Papp A→B at 60 min, 10 μM: A-B direction; for Papp B→A at 40 min, 10 μM: B-A direction
Experimental: The following procedure was used to determine the ability of a test compound to cross Caco-2 cells (human intestinal epithelial cells derived from a colorectal adenocarcinoma). The cells were seeded at 1×10^5 cells/cm^2 in 96-well Multiscreen™ plates (Millipore). Permeability assays were performed with the cells at days 21-25 post-seeding. Cells are typically used for 15 consecutive passages in culture.
This assay can be performed in either the apical to basolateral (A−B) or basolateral to apical (B−A) direction. The test compound was prepared at 10 μM in HBSS-MES (pH 6.5) or HBSS-HEPES (pH 7.4) with a final DMSO concentration of 1%. The working solution was then centrifuged and the supernatant added to the donor side. The assay plate was incubated at 37° C. with gentle shaking for 60 min or 40 min for the A−B or B−A assay, respectively. Samples were aliquoted from the donor side at time zero and the end point, and from the receiver side at the end point.
Reference compounds, propranolol (highly permeable), labetalol (moderately permeable), ranitidine (poorly permeable), and colchicine (P-glycoprotein substrate) were included in each assay.
Samples are analyzed by HPLC-MS/MS using selected reaction monitoring. The HPLC system consists of a binary LC pump with autosampler, a C-18 column, and a gradient.
The apparent permeability coefficient (Papp) of the test compound (Equation 2) and its recovery (Equation 3) are calculated as follows: […]
wherein A is the surface area of the cell monolayer (0.11 cm^2), C is concentration of the test compound expressed as peak area, D denotes donor, and R is receiver. “0”, “mid,” and “end” denote time at zero, mid-point, and end of the incubation, respectively. At is the incubation time. V is the volume of the donor or receiver.
This is most likely due to non-specific binding or degradation.

Thrombin = target: T1, Thrombin (Homo sapiens, UniProt P00734); test: Dose response assay for protease inhibitors: thrombin; assay type: biochemical; conditions: ratio versus Factor XIa
T1 construct: Thrombin; 0.2 μM in 50% glycerol (7.34 μg/mL)
Experimental: (§1) • Assay buffer: 20 mM Hepes, pH 7.4; 150 mM NaCl; 0.02% Tween 20 • Compounds: 10 mM stocks in DMSO • Substrate: 20 mM Glp-Pro-Arg-AMC, 25 mg/2.3 mL H2O (store at +4° C.) [Factor XIa, thrombin, and trypsin] • 20 mM Pro-Phe-Arg-AMC (Bachem I-1295), 25 mg/2.2 mL H2O or Boc-Leu-Gly-Arg-AMC (Bachem I-1105), 25 mg/2.07 mL H2O (store at +4° C.) [Factor Xa] • Enzyme: Factor XIa; 0.25 M in 50% glycerol (20 μg/mL) • Trypsin; 0.2 μM in 50% glycerol (4.8 μg/mL) • Thrombin; 0.2 μM in 50% glycerol (7.34 μg/mL) • Factor Xa; 0.2 μM in 50% glycerol (9.2 μg/mL)
(§2) • 1. Dilute the substrate to 100 μM in assay buffer (30 μL/6 mL). The enzyme is diluted to 0.5 nM just prior to use (12 L/6 mL for Factor XIa; 15 μL/6 mL for all of the rest.) • 2. Pipette 50 μL of substrate into each well of the 96 well (12×8) microtiter plate. (Column 1 is used as the 100% activity control and receives no compound, and Column 12 is the blank and receives no enzyme.) Add an additional 46 μL to column 2. • 3. Pipette 4 μL of each compound into the appropriate well in column 2 of the plate (unknowns assayed in triplicate, standard assayed in duplicate). The final compound concentration will be 1/50th of the stock. • 4. Serially two-fold dilute the compound by mixing the sample in column 2, removing 50 μL to the next well (column 3), mix and remove to column 4, etc. until column 11. After mixing column 11, remove 50 μL and discard. • 5. Pipette 50 μL of buffer into column 12. Initiate the reaction by adding 50 μL of enzyme solution to each well of columns 1-11 as rapidly as possible. • 6. Read the plate in a spectrophotometer (SpectraMax) at 30° C., wherein each well is measured every 60 s for 30 min. For Factor Xa assays, each well is measured every 1 min for a total of 60 min. • 7. For Factor XIa assays, the compounds are assayed, in duplicate, at 3 different starting concentrations, 20, 2, and 0.2 μM; 1:10, 1:100, and 1:1000 dilution of 10 mM stock or at 2, 0.2, and 0.02 μM; 1:100, 1:1000, and 1:10,000 dilution of 10 mM stock. Data for each concentration are combined for graphing and data fitting. • 8. Data can be used both for estimation of IC50 and for estimation of Kon.

Trypsin = target: T2, Trypsin (Bos taurus, UniProt P00760); test: Dose response assay for protease inhibitors: trypsin; assay type: biochemical; conditions: ratio versus Factor XIa
T2 construct: gene PRSS1
T2 sequence (P00760 24-246): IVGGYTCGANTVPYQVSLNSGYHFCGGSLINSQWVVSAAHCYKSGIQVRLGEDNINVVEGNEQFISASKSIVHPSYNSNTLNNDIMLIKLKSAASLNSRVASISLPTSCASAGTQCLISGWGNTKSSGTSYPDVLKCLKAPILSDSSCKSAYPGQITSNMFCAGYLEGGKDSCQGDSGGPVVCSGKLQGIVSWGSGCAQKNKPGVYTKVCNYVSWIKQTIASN
Experimental: as §1, §2

Factor Xa = target: T3, Factor Xa (Homo sapiens, UniProt P00742); test: Dose response assay for protease inhibitors: Factor Xa; assay type: biochemical; conditions: ratio versus Factor XIa
T3 construct: Factor Xa; 0.2 μM in 50% glycerol (9.2 μg/mL)
Experimental: as §1, §2

Chain of human Factor XIa (P03951 388-625 limits assumed): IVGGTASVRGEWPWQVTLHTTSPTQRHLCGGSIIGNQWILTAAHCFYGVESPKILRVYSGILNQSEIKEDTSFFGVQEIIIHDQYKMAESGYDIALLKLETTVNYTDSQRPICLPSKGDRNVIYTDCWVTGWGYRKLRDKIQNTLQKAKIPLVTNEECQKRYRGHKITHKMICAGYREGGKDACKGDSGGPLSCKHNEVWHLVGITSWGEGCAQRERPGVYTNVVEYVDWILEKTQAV
Chain of human Factor XIa (P03951 19-387 partner limits assumed): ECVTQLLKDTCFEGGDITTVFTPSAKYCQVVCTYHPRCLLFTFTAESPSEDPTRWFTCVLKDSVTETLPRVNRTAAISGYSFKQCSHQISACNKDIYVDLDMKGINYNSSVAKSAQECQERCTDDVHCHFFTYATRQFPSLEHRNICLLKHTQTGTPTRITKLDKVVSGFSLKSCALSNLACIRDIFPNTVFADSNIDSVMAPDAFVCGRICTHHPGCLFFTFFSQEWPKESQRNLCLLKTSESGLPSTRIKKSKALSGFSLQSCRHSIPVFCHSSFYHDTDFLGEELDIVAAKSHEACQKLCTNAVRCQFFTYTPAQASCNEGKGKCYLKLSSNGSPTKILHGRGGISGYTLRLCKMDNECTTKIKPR
T3 sequence (P00742 235-488 limits assumed): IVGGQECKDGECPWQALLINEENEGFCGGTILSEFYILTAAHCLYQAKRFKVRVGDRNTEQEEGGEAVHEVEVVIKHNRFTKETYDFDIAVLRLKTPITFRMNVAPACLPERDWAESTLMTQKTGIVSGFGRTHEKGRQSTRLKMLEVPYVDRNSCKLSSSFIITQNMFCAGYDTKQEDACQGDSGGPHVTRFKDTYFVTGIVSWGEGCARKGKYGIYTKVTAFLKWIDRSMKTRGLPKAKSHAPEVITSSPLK
T3 sequence (P00742 41-179 partner limits assumed): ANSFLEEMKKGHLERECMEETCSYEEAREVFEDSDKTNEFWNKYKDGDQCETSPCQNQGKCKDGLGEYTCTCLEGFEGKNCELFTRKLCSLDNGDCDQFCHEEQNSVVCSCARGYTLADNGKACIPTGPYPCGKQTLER

Row | fraction unbound at 4 h, 10 μM [1] | IC50 (human Factor XIa) | solubility at 24 h [2] | Papp A→B at 60 min, 10 μM [3] | Papp B→A at 40 min, 10 μM [3] | Ratio: Thrombin/FXIa (Thrombin) | Ratio: Trypsin/FXIa (Trypsin) | FXa/FXIa (selectivity ratio) (Factor Xa) | SMILES
1 | < 0.05 | 10 to 100 nM | ≤ 10 µM | ≤ 10 ×10⁻⁶ cm/s | ≤ 10 ×10⁻⁶ cm/s |  |  |  | CN(C(=O)[C@@H]1[C@@H](Cc2ccnc(N)c2)C(=O)N1C(=O)N[C@@H](C1CCCCC1)C(F)(F)F)c1cc(Cl)cc(Cl)c1 [Compound 23]
2 |  | < 10 nM |  | 11 to 30 ×10⁻⁶ cm/s | ≤ 10 ×10⁻⁶ cm/s | G (“G” indicates 1-100) | G (“G” indicates 1-100) | H (“H” indicates 101-1000) | CC[C@@H](NC(=O)N1C(=O)[C@H](Cc2ccnc(N)c2)[C@H]1C(=O)N(C)c1cccc(OC)c1)C1CCCCC1 [Compound 28]
3 |  | < 10 nM |  | ≤ 10 ×10⁻⁶ cm/s | ≤ 10 ×10⁻⁶ cm/s | G (“G” indicates 1-100) | G (“G” indicates 1-100) | H (“H” indicates 101-1000) | CC[C@@H](NC(=O)N1C(=O)[C@H](Cc2ccnc(N)c2)[C@H]1C(=O)N(CC)c1cccc(Cl)c1)C1CCCCC1 [Compound 32]
4 |  | < 10 nM |  | 11 to 30 ×10⁻⁶ cm/s | 11 to 30 ×10⁻⁶ cm/s | I (“I” indicates >500) | G (“G” indicates 1-100) | I (“I” indicates >500) | CC[C@@H](NC(=O)N1C(=O)[C@H](Cc2ccnc(N)c2)[C@H]1C(=O)N(C)c1ncccn1)C1CCCCC1 [Compound 37]
5 |  | < 10 nM |  | ≤ 10 ×10⁻⁶ cm/s | 11 to 30 ×10⁻⁶ cm/s | H (“H” indicates 101-1000) | G (“G” indicates 1-100) | I (“I” indicates >500) | CC[C@H](c1cccc(Cl)c1)N(C)C(=O)N1C(=O)[C@H](Cc2ccnc(N)c2)[C@H]1C(=O)N(C)c1ccncc1 [Compound 113]
6 |  | < 10 nM |  | 11 to 30 ×10⁻⁶ cm/s | ≤ 10 ×10⁻⁶ cm/s | H (“H” indicates 101-1000) | G (“G” indicates 1-100) | H (“H” indicates 101-1000) | CC[C@@H](NC(=O)N1C(=O)[C@H](Cc2ccnc(N)c2)[C@H]1C(=O)N(C)c1ccccc1)c1cccc(Cl)c1 [Compound 115]
7 |  | < 10 nM |  |  |  | G (“G” indicates 1-100) | G (“G” indicates 1-100) | H (“H” indicates 101-1000) | CC[C@@H](NC(=O)N1C(=O)[C@H](Cc2ccnc(N)c2)[C@H]1C(=O)N(C)c1ccnc(C)c1)c1cccc(Cl)c1 [Compound 124]
8 |  | < 10 nM |  |  |  | H (“H” indicates 101-1000) | G (“G” indicates 1-100) | I (“I” indicates >500) | CC[C@@H](NC(=O)N1C(=O)[C@H](Cc2cc(C)nc(N)c2)[C@H]1C(=O)N(C)c1ncccn1)c1cccc(Cl)c1 [Compound 135]
9 | < 0.05 |  | 10 to 100 µM (≈ 5.52 to 55.2 µg/mL) | ≤ 10 ×10⁻⁶ cm/s | ≤ 10 ×10⁻⁶ cm/s |  |  |  | CN(C(=O)[C@@H]1[C@@H](Cc2ccnc(N)c2)C(=O)N1C(=O)N[C@@H](C1CCCCC1)C(F)(F)F)c1cccc(Cl)c1 [Example 11]

— patent publication US20190315711A1 (eXIthera Pharmaceuticals, Inc., priority 2016, published 2019)
